According to PMC8844836 (Journal of molecular neuroscience : MN, 2020):
“Also recorded” adds a separate entry of the source.

Experiments:
[1] = system: HER2; conditions: NSCLC cells ref Moody et al., 2019; cited from earlier work
[2] = system: EGFR; conditions: NSCLC cells ref Moody et al., 2019; cited from earlier work
[3] = system: HER3; experiment: HER3 tyrosine phosphorylation, Western blot, Calu-3 cells; assay type: cell-based; conditions: for effect of ROS inhibitors on HER3 transactivation, statistics: Fig. 4B, mean ± S.D. of 3 experiments, relative to PACAP by ANOVA; for effect of ROS inhibitors on PACAP-induced HER3 tyrosine phosphorylation: Western blot (Fig. 4A), 3 experiments
[4] = molecular target: T1, PAC1 (Calu-3 cells) (Homo sapiens, UniProt P41586); experiment: cell-based
T1 sequence (P41586 21-468): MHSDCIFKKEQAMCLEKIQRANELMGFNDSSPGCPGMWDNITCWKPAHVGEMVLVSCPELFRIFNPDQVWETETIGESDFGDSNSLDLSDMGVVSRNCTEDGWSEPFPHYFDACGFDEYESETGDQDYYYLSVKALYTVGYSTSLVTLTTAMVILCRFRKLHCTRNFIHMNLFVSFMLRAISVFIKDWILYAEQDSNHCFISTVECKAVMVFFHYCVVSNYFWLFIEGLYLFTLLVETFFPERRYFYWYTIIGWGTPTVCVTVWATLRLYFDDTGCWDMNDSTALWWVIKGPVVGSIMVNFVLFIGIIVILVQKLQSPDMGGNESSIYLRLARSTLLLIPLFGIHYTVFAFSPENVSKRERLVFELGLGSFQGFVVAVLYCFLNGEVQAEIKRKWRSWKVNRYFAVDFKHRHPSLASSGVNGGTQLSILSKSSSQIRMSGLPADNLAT

[5] = system: NSCLC cells; experiment: Proliferation of NSCLC cells; assay type: cell-based
[6] = system: Calu-3 cells; experiment: Clonogenic assay, Calu-3 cells; assay type: cell-based
[7] = system: HER3; conditions: NSCLC cells ref Lee et al., 2020; cited from earlier work
[8] = system: HER3; experiment: HER3 tyrosine phosphorylation, NSCLC cells; assay type: cell-based
[9] = system: ERK; experiment: ERK phosphorylation, Western blot, Calu-3 cells; assay type: cell-based

c1ccc2c(c1)[I+]c1ccccc1-2 [DPI, diphenylene iodonium]
effect on PACAP-induced HER2 tyrosine phosphorylation (ROS inhibitors) [1]: inhibited
effect on PACAP-induced EGFR tyrosine phosphorylation (ROS inhibitors) [2]: inhibited
effect of ROS inhibitors on HER3 transactivation, statistics [3]: not DPI impaired significantly
effect of ROS inhibitors on PACAP-induced HER3 tyrosine phosphorylation [3]: weakly

CC(=O)N[C@@H](CS)C(=O)O [N-acetyl cysteine]
effect on PACAP-induced HER2 tyrosine phosphorylation (ROS inhibitors) [1]: inhibited
effect on PACAP-induced EGFR tyrosine phosphorylation (ROS inhibitors) [2]: inhibited
effect of ROS inhibitors on HER3 transactivation, statistics ([3]; listed as NAC): significantly impair; also recorded: impaired significantly
effect of ROS inhibitors on PACAP-induced HER3 tyrosine phosphorylation [3]: strongly inhibited

CSCC[C@H](NC(=O)[C@H](CCC(N)=O)NC(=O)[C@H](CCCCN)NC(=O)[C@H](CCCNC(=N)N)NC(=O)[C@H](Cc1ccc(O)cc1)NC(=O)[C@H](CCCNC(=N)N)NC(=O)[C@H](CO)NC(=O)[C@H](Cc1ccc(O)cc1)NC(=O)[C@H](CO)NC(=O)[C@H](CC(=O)O)NC(=O)[C@@H](NC(=O)[C@@H](N)Cc1ccccc1)[C@@H](C)O)C(=O)N[C@@H](C)C(=O)N[C@H](C(=O)N[C@@H](CCCCN)C(=O)N[C@@H](CCCCN)C(=O)N[C@@H](Cc1ccc(O)cc1)C(=O)N[C@@H](CC(C)C)C(=O)N[C@@H](C)C(=O)N[C@@H](C)C(=O)N[C@H](C(=O)N[C@@H](CC(C)C)C(=O)NCC(=O)N[C@@H](CCCCN)C(=O)N[C@@H](CCCNC(=N)N)C(=O)N[C@@H](Cc1ccc(O)cc1)C(=O)N[C@@H](CCCCN)C(=O)N[C@@H](CCC(N)=O)C(=O)N[C@@H](CCCNC(=N)N)C(=O)N[C@H](C(=O)N[C@@H](CCCCN)C(=O)N[C@@H](CC(N)=O)C(=O)N[C@@H](CCCCN)C(N)=O)C(C)C)C(C)C)C(C)C [PACAP(6–38)]
IC50 [4]: 31.4 ± 4.9 nM

O=S(=O)(O)c1cc(O)c(O)c(S(=O)(=O)O)c1 [Tiron]
effect on PACAP-induced HER2 tyrosine phosphorylation (ROS inhibitors) [1]: inhibited
effect on PACAP-induced EGFR tyrosine phosphorylation (ROS inhibitors) [2]: inhibited
effect of ROS inhibitors on HER3 transactivation, statistics [3]: significantly impair
effect of ROS inhibitors on HER3 transactivation, statistics ([3]; listed as Tir): impaired significantly
effect of ROS inhibitors on PACAP-induced HER3 tyrosine phosphorylation [3]: strongly inhibited

COc1cc2ncnc(Nc3ccc(F)c(Cl)c3)c2cc1OCCCN1CCOCC1 [gefitinib]
proliferation of NSCLC cells [5]: inhibited proliferation
effect on PACAP-27-induced increase in colony number ([6]; 100 nM PACAP-27): impaired
Colony number, + PACAP ([6]; with 100 nM PACAP-27, PACAP(6–38) 5 μM, gefitinib 1 μM, trastuzumab 0.1 μg/ml, mAb3481 0.1 μg/ml, mean ± S.D. of 3 determinations): 43 ± 5

Bombesin
HER3 tyrosine phosphorylation [7]: increases HER3 tyrosine phosphorylation

neuregulin (NRG)-1 [NRG-1]
proliferation of NSCLC cells [5]: increased the proliferation
increase in colony number ([6]; NRG-1 0.1 μg/ml, PACAP-27 100 nM, 2 weeks): 33%
HER3 tyrosine phosphorylation, NSCLC cells [8]: increased HER3 tyrosine phosphorylation
ERK phosphorylation, densitometry statistics, 2, 5, 10 and 30 min ([9]; Fig. 2D, NRG-1 1 μg/ml, 2, 5, 10 and 30 min): significantly increased
ERK phosphorylation, 5, 10 and 30 min ([9]; PACAP-27 1000 nM or NRG-1 1 μg/ml, 5, 10 and 30 min): moderate
ERK phosphorylation, 2 min ([9]; PACAP-27 1000 nM or NRG-1 1 μg/ml, 2 min): weakly stimulates
HER3 phosphorylation, 5, 10 and 30 min ([3]; Calu-3, PACAP-27 1000 nM or NRG-1 1 μg/ml, 5, 10 and 30 min): moderate
HER3 phosphorylation, 2 min ([3]; Calu-3, PACAP-27 1000 nM or NRG-1 1 μg/ml, 2 min): weakly stimulates
HER3 phosphorylation, densitometry statistics, 2, 5, 10 and 30 min ([3]; Fig. 2D, NRG-1 1 μg/ml, Calu-3, 2, 5, 10 and 30 min): significantly increased
